According to PMC11023033:

Assay: CuAAC: 1,7-diethynyl PDI 8 + bis-azide, [1+1] macrocyclisation; Cu(MeCN)4PF6 0.4 eq with TBTA 0.4 eq (THPTA for 2a), N2, rt
Details: the molecule shown is the open-chain precursor, CH2Cl2, 0.22 mM, 25.0 °C

SMILES: C#Cc1cc2c3c(ccc4c5c(-c6cn(CCCCCCCCOc7ccc8ccccc8c7-c7c(OCCCCCCCCN=[N+]=[N-])ccc8ccccc78)nn6)cc6c7c(ccc(c1c34)c75)C(=O)N(c1c(C(C)C)cccc1C(C)C)C6=O)C(=O)N(c1c(C(C)C)cccc1C(C)C)C2=O
- ring closure, isolated yield (34-membered ring, 96.0 h): 33%

SMILES: C#Cc1cc2c3c(ccc4c5c(-c6cn(CCCCCCOc7ccc8ccccc8c7-c7c(OCCCCCCN=[N+]=[N-])ccc8ccccc78)nn6)cc6c7c(ccc(c1c34)c75)C(=O)N(c1c(C(C)C)cccc1C(C)C)C6=O)C(=O)N(c1c(C(C)C)cccc1C(C)C)C2=O
- ring closure, isolated yield (30-membered ring, 96.0 h): 53%

SMILES: C#Cc1cc2c3c(ccc4c5c(-c6cn(CCCCOc7ccc(OCCCCN=[N+]=[N-])cc7)nn6)cc6c7c(ccc(c1c34)c75)C(=O)N(c1c(C(C)C)cccc1C(C)C)C6=O)C(=O)N(c1c(C(C)C)cccc1C(C)C)C2=O [1a (hydroquinone, n=4)]
- ring closure, isolated yield (26-membered ring, 96.0 h): 24%

SMILES: C#Cc1cc2c3c(ccc4c5c(-c6cn(CCCCCCOc7ccc(OCCCCCCN=[N+]=[N-])cc7)nn6)cc6c7c(ccc(c1c34)c75)C(=O)N(c1c(C(C)C)cccc1C(C)C)C6=O)C(=O)N(c1c(C(C)C)cccc1C(C)C)C2=O [1b (hydroquinone, n=6)]
- ring closure, isolated yield (30-membered ring, 96.0 h): 23%

SMILES: C#Cc1cc2c3c(ccc4c5c(-c6cn(CCCCOc7ccc8ccccc8c7-c7c(OCCCCN=[N+]=[N-])ccc8ccccc78)nn6)cc6c7c(ccc(c1c34)c75)C(=O)N(c1c(C(C)C)cccc1C(C)C)C6=O)C(=O)N(c1c(C(C)C)cccc1C(C)C)C2=O [2a (P-BINOL, n=4; PM 2% + PP 2%, dr 1:1)]
- ring closure, isolated yield (26-membered ring, 144.0 h): 4%
